Data taken from US10294202B2, “Pyrrolidinones as herbicides” (FMC Corporation, priority 2013, dated 2019).

Experiments:
ducksalad = assay: Test C flooded paddy test; type: in vivo, Heteranthera limosa; conditions: Flood
How it was run: (§1)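 Plants at the 2-leaf stage in pots flooded to 3 cm were treated by applying compound directly to the paddy water, with depth held throughout. After 13 to 15 days in a greenhouse, response was rated visually against controls on a 0 (no effect) to 100 (complete control) scale.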

pigweed = assay: Test A pre-/postemergence herbicide test; type: in vivo, Amaranthus retroflexus; conditions: for Pigweed plant response rating: Preemergence, visual rating on 0 to 100 scale (0 no effect, 100 complete control)
How it was run: (§2)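 Seeds in loam–sand blend received preemergence directed soil spray; separately, plants 2–10 cm at one- to two-leaf stage received postemergence spray, both with test chemicals in non-phytotoxic solvent with surfactant. After ~10 days in greenhouse, injury rated visually against untreated controls, 0 (no effect) to 100 (complete control).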

corn = assay: Test A pre-/postemergence herbicide test; type: in vivo, Zea mays; conditions: for Corn plant response rating: Preemergence, visual rating on 0 to 100 scale (0 no effect, 100 complete control)
How it was run: as §2

sedge, umbrella = assay: Test C flooded paddy test; type: in vivo, Cyperus difformis; conditions: Flood
How it was run: as §1

velvetleaf = assay: Test A pre-/postemergence herbicide test; type: in vivo, Abutilon theophrasti; conditions: for Velvetleaf plant response rating: Preemergence, visual rating on 0 to 100 scale (0 no effect, 100 complete control)
How it was run: as §2

morningglory = assay: Test A pre-/postemergence herbicide test; type: in vivo, Ipomoea spp.; conditions: for Morningglory plant response rating: Preemergence, visual rating on 0 to 100 scale (0 no effect, 100 complete control)
How it was run: as §2

barnyardgrass [1] = assay: Test C flooded paddy test; type: in vivo, Echinochloa crus-galli; conditions: Flood
How it was run: as §1

rice = assay: Test C flooded paddy test; type: in vivo, Oryza sativa; conditions: Flood
How it was run: as §1

barnyardgrass [2] = assay: Test A pre-/postemergence herbicide test; type: in vivo, Echinochloa crus-galli; conditions: for Barnyardgrass plant response rating: Preemergence, visual rating on 0 to 100 scale (0 no effect, 100 complete control)
How it was run: as §2

wheat = assay: Test A pre-/postemergence herbicide test; type: in vivo, Triticum aestivum; conditions: for Wheat plant response rating: Preemergence, visual rating on 0 to 100 scale (0 no effect, 100 complete control)
How it was run: as §2

crabgrass, large = assay: Test A pre-/postemergence herbicide test; type: in vivo, Digitaria sanguinalis; conditions: for Crabgrass, Large plant response rating: Preemergence, visual rating on 0 to 100 scale (0 no effect, 100 complete control)
How it was run: as §2

giant foxtail = assay: Test A pre-/postemergence herbicide test; type: in vivo, Setaria faberii; conditions: for Foxtail, Giant plant response rating: Preemergence, visual rating on 0 to 100 scale (0 no effect, 100 complete control)
How it was run: as §2

[3] = 31 g ai/ha, scale of 0 to 100 where 0 is no effect and 100 is complete control, 13 to 15 days
[4] = 62 g ai/ha, scale of 0 to 100 where 0 is no effect and 100 is complete control, 13 to 15 days
[5] = 125 g ai/ha, scale of 0 to 100 where 0 is no effect and 100 is complete control, 13 to 15 days
[6] = Postemergence, 500 g ai/ha, 0 to 100 scale (0 no effect, 100 complete control)
[7] = preemergence, 500 g ai/ha, 0 to 100 scale
[8] = Postemergence, 125 g ai/ha, 0 to 100 scale, 0 no effect, 100 complete control
[9] = preemergence, 500 g ai/ha, 0 to 100 scale (0 no effect, 100 complete control)

O=C1NCC(c2cccc(C(F)(F)F)c2)C1C(=O)Nc1ccccc1C(F)(F)F (racemic) [Compound 4]
60: Plant response rating, Barnyardgrass (barnyardgrass [2]; [8]) | Barnyardgrass plant response rating (barnyardgrass [2]; 125 g ai/ha) | Wheat plant response rating (wheat; 125 g ai/ha) | Plant response rating, Crabgrass, Large (crabgrass, large; [8]) | Plant response rating, Foxtail, Giant (giant foxtail; [8])
30: Plant response rating, Ducksalad (ducksalad; [4]) | Plant response rating, Morningglory (morningglory; [6]) | Plant response rating, Barnyardgrass (barnyardgrass [1]; [5])
80: Plant response rating, Ducksalad (ducksalad; [5]) | Plant response rating, Barnyardgrass (barnyardgrass [2]; [9]) | Plant response rating, Crabgrass, Large (crabgrass, large; [6]) | Foxtail, Giant plant response rating (giant foxtail; 125 g ai/ha)
50: Plant response rating, Pigweed (pigweed; [6]) | Plant response rating, Corn (corn; [6]) | Plant response rating, Wheat (wheat; [6])
85: Plant response rating, Ducksalad (ducksalad; 250 g ai/ha, scale 0 to 100)
0: Pigweed plant response rating (pigweed; 125 g ai/ha) | Plant response rating, Pigweed (pigweed; [7]) | Plant response rating, Corn (corn; [8]) | Corn plant response rating (corn; 125 g ai/ha) | Plant response rating, Corn (corn; [7]) | Plant response rating, Sedge, Umbrella (sedge, umbrella; [3]) | Plant response rating, Sedge, Umbrella (sedge, umbrella; [4]) | Plant response rating, Sedge, Umbrella (sedge, umbrella; [5]) | Plant response rating, Sedge, Umbrella (sedge, umbrella; 250 g ai/ha, scale 0 to 100) | Plant response rating, Velvetleaf (velvetleaf; [6]) | Velvetleaf plant response rating (velvetleaf; 125 g ai/ha) | Plant response rating, Velvetleaf (velvetleaf; [7]) | Morningglory plant response rating (morningglory; 125 g ai/ha) | Plant response rating, Morningglory (morningglory; [7]) | Plant response rating, Barnyardgrass (barnyardgrass [1]; [3]) | Plant response rating, Barnyardgrass (barnyardgrass [1]; [4]) | Plant response rating, Rice (rice; [3]) | Plant response rating, Rice (rice; [4]) | Plant response rating, Rice (rice; [5]) | Plant response rating, Rice (rice; 250 g ai/ha, scale 0 to 100)
90: Crabgrass, Large plant response rating (crabgrass, large; 125 g ai/ha) | Plant response rating, Crabgrass, Large (crabgrass, large; [7]) | Plant response rating, Foxtail, Giant (giant foxtail; [7])
20: Plant response rating, Ducksalad (ducksalad; [3])
70: Plant response rating, Barnyardgrass (barnyardgrass [2]; [6]) | Plant response rating, Wheat (wheat; [7]) | Plant response rating, Foxtail, Giant (giant foxtail; [6])
40: Plant response rating, Barnyardgrass (barnyardgrass [1]; 250 g ai/ha, scale 0 to 100)

O=C1NCC(c2ccc(F)c(F)c2)C1C(=O)Nc1cccc(F)c1F (racemic) [Compound 107]
40: Plant response rating, Morningglory (morningglory; [6])
0: Plant response rating, Ducksalad (ducksalad; [5]) | Plant response rating, Pigweed (pigweed; [8]) | Pigweed plant response rating (pigweed; 125 g ai/ha) | Plant response rating, Corn (corn; [8]) | Plant response rating, Corn (corn; [6]) | Corn plant response rating (corn; 125 g ai/ha) | Plant response rating, Corn (corn; [7]) | Plant response rating, Sedge, Umbrella (sedge, umbrella; [5]) | Plant response rating, Sedge, Umbrella (sedge, umbrella; 250 g ai/ha, scale 0 to 100) | Plant response rating, Sedge, Umbrella (sedge, umbrella; 500 g ai/ha, scale 0 to 100) | Plant response rating, Sedge, Umbrella (sedge, umbrella; 1000 g ai/ha, scale 0 to 100) | Plant response rating, Velvetleaf (velvetleaf; [8]) | Velvetleaf plant response rating (velvetleaf; 125 g ai/ha) | Plant response rating, Velvetleaf (velvetleaf; [7]) | Plant response rating, Morningglory (morningglory; [8]) | Morningglory plant response rating (morningglory; 125 g ai/ha) | Plant response rating, Morningglory (morningglory; [7]) | Plant response rating, Barnyardgrass (barnyardgrass [1]; [5]) | Plant response rating, Barnyardgrass (barnyardgrass [1]; 250 g ai/ha, scale 0 to 100) | Plant response rating, Barnyardgrass (barnyardgrass [1]; 500 g ai/ha, scale 0 to 100) | Plant response rating, Rice (rice; [5]) | Plant response rating, Rice (rice; 250 g ai/ha, scale 0 to 100) | Plant response rating, Rice (rice; 500 g ai/ha, scale 0 to 100) | Plant response rating, Rice (rice; 1000 g ai/ha, scale 0 to 100) | Plant response rating, Wheat (wheat; [8]) | Plant response rating, Wheat (wheat; [6]) | Wheat plant response rating (wheat; 125 g ai/ha) | Plant response rating, Wheat (wheat; [7])
20: Plant response rating, Pigweed (pigweed; [7]) | Plant response rating, Velvetleaf (velvetleaf; [6]) | Plant response rating, Barnyardgrass (barnyardgrass [1]; 1000 g ai/ha, scale 0 to 100) | Barnyardgrass plant response rating (barnyardgrass [2]; 125 g ai/ha)
30: Plant response rating, Ducksalad (ducksalad; 250 g ai/ha, scale 0 to 100) | Plant response rating, Pigweed (pigweed; [6])
10: Plant response rating, Foxtail, Giant (giant foxtail; [8])
80: Plant response rating, Barnyardgrass (barnyardgrass [2]; [6]) | Crabgrass, Large plant response rating (crabgrass, large; 125 g ai/ha) | Plant response rating, Foxtail, Giant (giant foxtail; [7])
90: Plant response rating, Crabgrass, Large (crabgrass, large; [7])
70: Plant response rating, Ducksalad (ducksalad; 1000 g ai/ha, scale 0 to 100) | Plant response rating, Barnyardgrass (barnyardgrass [2]; [9]) | Plant response rating, Crabgrass, Large (crabgrass, large; [6]) | Plant response rating, Foxtail, Giant (giant foxtail; [6]) | Foxtail, Giant plant response rating (giant foxtail; 125 g ai/ha)
60: Plant response rating, Ducksalad (ducksalad; 500 g ai/ha, scale 0 to 100) | Plant response rating, Crabgrass, Large (crabgrass, large; [8])
50: Plant response rating, Barnyardgrass (barnyardgrass [2]; [8])

CC1NC(=O)C(C(=O)Nc2ccccc2F)C1c1ccc(F)c(F)c1 (mixture of isomers) [Compound 8]
50: Plant response rating, Foxtail, Giant (giant foxtail; [6])
90: Plant response rating, Crabgrass, Large (crabgrass, large; [7]) | Plant response rating, Foxtail, Giant (giant foxtail; [7])
60: Plant response rating, Barnyardgrass (barnyardgrass [2]; [6]) | Plant response rating, Barnyardgrass (barnyardgrass [2]; [9]) | Plant response rating, Crabgrass, Large (crabgrass, large; [8]) | Foxtail, Giant plant response rating (giant foxtail; 125 g ai/ha)
80: Crabgrass, Large plant response rating (crabgrass, large; 125 g ai/ha)
70: Plant response rating, Crabgrass, Large (crabgrass, large; [6])
0: Plant response rating, Ducksalad (ducksalad; [3]) | Plant response rating, Ducksalad (ducksalad; [4]) | Plant response rating, Ducksalad (ducksalad; [5]) | Plant response rating, Ducksalad (ducksalad; 250 g ai/ha, scale 0 to 100) | Plant response rating, Pigweed (pigweed; [8]) | Plant response rating, Pigweed (pigweed; [6]) | Pigweed plant response rating (pigweed; 125 g ai/ha) | Plant response rating, Pigweed (pigweed; [7]) | Plant response rating, Corn (corn; [8]) | Plant response rating, Corn (corn; [6]) | Corn plant response rating (corn; 125 g ai/ha) | Plant response rating, Sedge, Umbrella (sedge, umbrella; [3]) | Plant response rating, Sedge, Umbrella (sedge, umbrella; [4]) | Plant response rating, Sedge, Umbrella (sedge, umbrella; [5]) | Plant response rating, Sedge, Umbrella (sedge, umbrella; 250 g ai/ha, scale 0 to 100) | Plant response rating, Velvetleaf (velvetleaf; [8]) | Plant response rating, Velvetleaf (velvetleaf; [6]) | Velvetleaf plant response rating (velvetleaf; 125 g ai/ha) | Plant response rating, Velvetleaf (velvetleaf; [7]) | Plant response rating, Morningglory (morningglory; [8]) | Plant response rating, Morningglory (morningglory; [6]) | Morningglory plant response rating (morningglory; 125 g ai/ha) | Plant response rating, Morningglory (morningglory; [7]) | Plant response rating, Barnyardgrass (barnyardgrass [1]; [3]) | Plant response rating, Barnyardgrass (barnyardgrass [1]; [4]) | Plant response rating, Barnyardgrass (barnyardgrass [1]; [5]) | Plant response rating, Barnyardgrass (barnyardgrass [1]; 250 g ai/ha, scale 0 to 100) | Plant response rating, Rice (rice; [3]) | Plant response rating, Rice (rice; [4]) | Plant response rating, Rice (rice; [5]) | Plant response rating, Rice (rice; 250 g ai/ha, scale 0 to 100) | Plant response rating, Wheat (wheat; [8]) | Plant response rating, Wheat (wheat; [6]) | Wheat plant response rating (wheat; 125 g ai/ha) | Plant response rating, Wheat (wheat; [7]) | Plant response rating, Foxtail, Giant (giant foxtail; [8])
20: Plant response rating, Corn (corn; [7]) | Plant response rating, Barnyardgrass (barnyardgrass [2]; [8]) | Barnyardgrass plant response rating (barnyardgrass [2]; 125 g ai/ha)
